Reference: ChEMBL document CHEMBL1201862, “PubChem BioAssay data set” (2004)
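Assay format: 96-well plates, 48-hour exposure. The concentration for 50% growth inhibition is given as GI50.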 Activity calls are given as the source filed them. Rule as the data show it: active = GI50 up to about 1.1 µM and inactive = higher.

How the values were obtained:
Assay in all cases: growth of human tumour cells (NCI), 48 h
[1] = system: A549
[2] = system: BT-549
[3] = system: CAKI-1
[4] = system: COLO 205
[5] = system: EKVX
[6] = system: HCT-116
[7] = system: HCT-15
[8] = system: HOP-62
[9] = system: IGROV-1
[10] = system: NCI-H23
[11] = system: NCI-H522
[12] = system: OVCAR-8
[13] = system: SN12C
[14] = system: SNB-19
[15] = system: SR
[16] = system: SW-620
[17] = system: T47D
[18] = system: A498
[19] = system: LOX IMVI

Measured: GI50

CCN(CC)c1ccc2nc3ccc(/N=N/c4c(O)ccc5ccccc45)cc3[n+](-c3ccccc3)c2c1
> 100 µM: [7]
inactive: [1] > 100 µM | [2] > 100 µM | [3] > 100 µM | [4] > 100 µM | [5] > 100 µM | [6] > 100 µM | [8] > 100 µM | [9] > 100 µM | [10] > 100 µM | [11] > 100 µM | [12] > 100 µM | [13] > 100 µM | [14] > 100 µM | [15] 1.47 µM | [16] > 100 µM | [17] > 100 µM

NC(=O)c1ncn2c1CNC(=O)C2
> 100 µM: [7]
inactive: [18] > 100 µM | [1] > 100 µM | [2] > 100 µM | [3] > 100 µM | [4] > 100 µM | [5] > 100 µM | [8] > 100 µM | [9] > 100 µM | [10] > 100 µM | [11] > 100 µM | [12] > 100 µM | [13] > 100 µM | [14] > 100 µM | [15] > 100 µM | [16] > 100 µM | [17] > 100 µM

NCC[Se][Se]CCN
inactive: [18] 9.18 µM | [1] 6.03 µM | [2] 14.4 µM | [3] 10.7 µM | [4] 4.06 µM | [5] 5.38 µM | [6] 4.28 µM | [8] 8.67 µM | [9] 9.23 µM | [10] 15 µM | [11] 10.4 µM | [12] 10.6 µM | [13] 6.76 µM | [14] 8.47 µM | [15] 10.1 µM | [16] 10.7 µM | [17] 5.58 µM
6.24 µM: [7]

CCCCS(=O)(=O)CCC(N)C(=O)O (centres undefined)
> 100 µM: [7]
inactive: [18] > 100 µM | [1] > 100 µM | [2] > 100 µM | [3] > 100 µM | [4] > 100 µM | [5] > 100 µM | [6] > 100 µM | [8] > 100 µM | [9] > 100 µM | [10] > 100 µM | [11] > 100 µM | [12] > 100 µM | [13] > 100 µM | [14] > 100 µM | [15] > 100 µM | [16] > 100 µM | [17] > 100 µM

Cc1cn(C2CC(n3cc(Cn4ccc(=O)[nH]c4=O)nn3)C(CO)O2)c(=O)[nH]c1=O (centres undefined)
> 100 µM: [7]
active: [15] < 0.01 µM
inactive: [18] > 100 µM | [1] > 100 µM | [2] > 100 µM | [3] > 100 µM | [4] > 100 µM | [6] > 100 µM | [8] > 100 µM | [10] > 100 µM | [12] > 100 µM | [13] > 100 µM | [14] > 100 µM | [16] > 100 µM | [17] > 100 µM

CCOC(=O)c1ccc(NC(=O)O/N=C(/Cl)CC)cc1
inactive: [18] 15.7 µM | [1] 24.8 µM | [2] 19.2 µM | [3] 4.57 µM | [4] 2.41 µM | [5] 16.1 µM | [6] 8.99 µM | [8] 20.4 µM | [9] 18.5 µM | [10] 17.4 µM | [11] 2.77 µM | [12] 14.9 µM | [13] 19.9 µM | [14] 21.3 µM | [15] 3.57 µM | [16] 1.87 µM | [17] 7.73 µM
13.5 µM: [7]

C(=N\c1ccc(-c2nc3ccccc3o2)cc1)/c1ccco1
49.3 µM: [7]
inactive: [18] 37.7 µM | [2] 77.4 µM | [3] 40 µM | [4] 37.7 µM | [5] 48.3 µM | [6] 59.6 µM | [9] 49.4 µM | [19] 58.9 µM | [10] 78.2 µM | [11] 44.2 µM | [12] > 100 µM | [13] 61.9 µM | [14] > 100 µM | [15] 65.9 µM | [16] > 100 µM | [17] 38.6 µM

CC(C)/C(Cl)=N\OC(=O)Nc1ccc(F)cc1
inactive: [18] 14.2 µM | [1] 17.4 µM | [2] 11.2 µM | [4] 2.63 µM | [5] 5.62 µM | [6] 6.61 µM | [8] 19.2 µM | [9] 14.8 µM | [19] 2.05 µM | [10] 18.2 µM | [11] 1.52 µM | [12] 12.8 µM | [13] 5.87 µM | [14] 19.2 µM | [15] 1.68 µM | [16] 1.69 µM | [17] 6.53 µM
3.48 µM: [7]

NC(=O)CSc1nc2ccccc2c(=O)n1N
inactive: [18] > 100 µM | [1] > 100 µM | [2] > 100 µM | [3] > 100 µM | [4] > 100 µM | [5] > 100 µM | [6] > 100 µM | [9] > 100 µM | [19] > 100 µM | [10] > 100 µM | [11] > 100 µM | [12] > 100 µM | [13] > 100 µM | [14] > 100 µM | [15] > 100 µM | [16] > 100 µM | [17] > 100 µM
> 100 µM: [7]

C=C1N(S(=O)(=O)c2ccc(C)cc2)C(=O)OCC12CCCC2
inactive: [18] > 100 µM | [1] > 100 µM | [2] > 100 µM | [3] 94.4 µM | [4] 72.8 µM | [5] 55 µM | [6] 55.3 µM | [9] 31.3 µM | [19] > 100 µM | [10] 59.3 µM | [11] > 100 µM | [12] > 100 µM | [14] > 100 µM | [15] 45.7 µM | [16] > 100 µM | [17] 27.2 µM
94 µM: [7]

CC(C)Nc1n[nH]c(=O)n1C(C)C
inactive: [18] > 100 µM | [1] > 100 µM | [2] > 100 µM | [3] > 100 µM | [4] > 100 µM | [5] > 100 µM | [6] > 100 µM | [8] > 100 µM | [9] > 100 µM | [19] > 100 µM | [10] > 100 µM | [12] > 100 µM | [13] > 100 µM | [14] > 100 µM | [15] > 100 µM | [16] > 100 µM | [17] > 100 µM
> 100 µM: [7]

COC(=O)C1=C(O)C(C(=O)OC)[C@]2(O)[C@H](C(=O)OC)[C@H]1C[C@@H](c1ccc(C(F)(F)F)cc1)[C@H]2C(=O)OC (some centres undefined)
2.82 µM: [7]
inactive: [18] 3.37 µM | [1] 3.74 µM | [2] 3.25 µM | [3] 3.34 µM | [4] 3.18 µM | [5] 10.6 µM | [6] 2.54 µM | [8] 6.87 µM | [9] 5.15 µM | [19] 2.45 µM | [10] 3.58 µM | [12] 2.85 µM | [13] 4.47 µM | [14] 3.87 µM | [15] 2.56 µM | [16] 2.76 µM | [17] 3.44 µM
